Literature values as cited in patent US12655468B2, “Genetic predictors of a response to treatment with CRHR1 antagonists” (HMNC Holding GmbH, priority 2015, dated 2026).

Test system: mice overexpressing CRH in the forebrain

COCC(COC)Nc1nc(C)nc2c(-c3ccc(Cl)cc3Cl)c(C)nn12 [DMP696]
effect on increased REM sleep: could reverse the REM enhancement
